Experiment: xn = mol fraction of the nth substance listed
Conditions: 100 kPa, Liquid; for viscosity: Capillary tube (Ostwald / Ubbelohde) method; for speed of sound: Frequency=2 MHz, Linear variable-path acoustic interferometer; for mass density: Vibrating tube method

CCN(CC)c1ccccc1 [N,N-diethylaniline] + CCCCCCCCCO
Conditions | mass density [kg/m3] | speed of sound [m/s] | viscosity [mPa·s]
303.15 K, x1 = 0.1136 | 829.82 | 1359 | 6.563
303.15 K, x1 = 0.2326 | 840.12 | 1362.8 | 5.409
303.15 K, x1 = 0.3469 | 850.43 | 1367.6 | 4.509
303.15 K, x1 = 0.4541 | 860.76 | 1373.5 | 3.804
303.15 K, x1 = 0.5549 | 871.13 | 1380.2 | 3.248
303.15 K, x1 = 0.6498 | 881.45 | 1387.8 | 2.805
303.15 K, x1 = 0.7293 | 890.62 | 1395.3 | 2.488
303.15 K, x1 = 0.8244 | 902.24 | 1405.9 | 2.166
303.15 K, x1 = 0.9041 | 912.58 | 1416.7 | 1.938
303.15 K, x1 = 1 | 925.8 | 1432 | 1.711
308.15 K, x1 = 0.1136 | 826.24 | 1336.3 | 5.491
308.15 K, x1 = 0.2326 | 836.48 | 1340.6 | 4.557
308.15 K, x1 = 0.3469 | 846.76 | 1346.2 | 3.828
308.15 K, x1 = 0.4541 | 857.04 | 1352.7 | 3.252
308.15 K, x1 = 0.5549 | 867.33 | 1360.1 | 2.794
308.15 K, x1 = 0.6498 | 877.63 | 1368.3 | 2.427
308.15 K, x1 = 0.7293 | 886.75 | 1376.3 | 2.164
308.15 K, x1 = 0.8244 | 898.32 | 1387.7 | 1.898
308.15 K, x1 = 0.9041 | 908.61 | 1399.2 | 1.714
308.15 K, x1 = 1 | 921.8 | 1416 | 1.537
313.15 K, x1 = 0.1136 | 822.7 | 1315.3 | 4.791
313.15 K, x1 = 0.2326 | 832.9 | 1320 | 3.988
313.15 K, x1 = 0.3469 | 843.13 | 1325.9 | 3.362
313.15 K, x1 = 0.4541 | 853.37 | 1332.7 | 2.867
313.15 K, x1 = 0.5549 | 863.63 | 1340.4 | 2.471
313.15 K, x1 = 0.6498 | 873.88 | 1348.9 | 2.154
313.15 K, x1 = 0.7293 | 882.96 | 1357.1 | 1.926
313.15 K, x1 = 0.8244 | 894.48 | 1368.8 | 1.697
313.15 K, x1 = 0.9041 | 904.74 | 1380.6 | 1.541
313.15 K, x1 = 1 | 917.9 | 1398 | 1.4
318.15 K, x1 = 0.1136 | 817.68 | 1295.7 | 3.979
318.15 K, x1 = 0.2326 | 827.96 | 1300.3 | 3.341
318.15 K, x1 = 0.3469 | 838.28 | 1306.2 | 2.843
318.15 K, x1 = 0.4541 | 848.61 | 1312.9 | 2.447
318.15 K, x1 = 0.5549 | 858.95 | 1320.6 | 2.128
318.15 K, x1 = 0.6498 | 869.3 | 1328.9 | 1.869
318.15 K, x1 = 0.7293 | 878.48 | 1337.1 | 1.683
318.15 K, x1 = 0.8244 | 890.11 | 1348.6 | 1.498
318.15 K, x1 = 0.9041 | 900.48 | 1360.3 | 1.377
318.15 K, x1 = 1 | 913.8 | 1378 | 1.276

CCN(CC)c1ccccc1 [N,N-diethylaniline] + CCCCCCCCO
Conditions | mass density [kg/m3] | speed of sound [m/s] | viscosity [mPa·s]
303.15 K, x1 = 0.1157 | 828.58 | 1338.2 | 5.469
303.15 K, x1 = 0.2012 | 836.5 | 1342.6 | 4.863
303.15 K, x1 = 0.3115 | 847.11 | 1349.2 | 4.178
303.15 K, x1 = 0.4221 | 858.24 | 1357.3 | 3.59
303.15 K, x1 = 0.5111 | 867.57 | 1364.9 | 3.18
303.15 K, x1 = 0.6217 | 879.68 | 1375.9 | 2.743
303.15 K, x1 = 0.7135 | 890.17 | 1386.8 | 2.433
303.15 K, x1 = 0.8063 | 901.22 | 1399.4 | 2.162
303.15 K, x1 = 0.9045 | 913.42 | 1414.7 | 1.915
303.15 K, x1 = 1 | 925.8 | 1432 | 1.711
308.15 K, x1 = 0.1157 | 824.98 | 1317.3 | 4.653
308.15 K, x1 = 0.2012 | 832.86 | 1321.9 | 4.155
308.15 K, x1 = 0.3115 | 843.43 | 1329.1 | 3.59
308.15 K, x1 = 0.4221 | 854.51 | 1337.7 | 3.132
308.15 K, x1 = 0.5111 | 863.81 | 1345.7 | 2.762
308.15 K, x1 = 0.6217 | 875.86 | 1357.3 | 2.397
308.15 K, x1 = 0.7135 | 886.3 | 1368.4 | 2.137
308.15 K, x1 = 0.8063 | 897.3 | 1381.4 | 1.913
308.15 K, x1 = 0.9045 | 909.45 | 1397.3 | 1.704
308.15 K, x1 = 1 | 921.8 | 1416 | 1.537
313.15 K, x1 = 0.1157 | 820.38 | 1300 | 3.991
313.15 K, x1 = 0.2012 | 828.3 | 1304.5 | 3.58
313.15 K, x1 = 0.3115 | 838.94 | 1311.6 | 3.112
313.15 K, x1 = 0.4221 | 850.09 | 1320.2 | 2.707
313.15 K, x1 = 0.5111 | 859.45 | 1328.2 | 2.422
313.15 K, x1 = 0.6217 | 871.58 | 1339.5 | 2.118
313.15 K, x1 = 0.7135 | 882.1 | 1350.5 | 1.899
313.15 K, x1 = 0.8063 | 893.18 | 1363.3 | 1.708
313.15 K, x1 = 0.9045 | 905.42 | 1379.3 | 1.536
313.15 K, x1 = 1 | 917.9 | 1398 | 1.4
318.15 K, x1 = 0.1157 | 815.85 | 1286.3 | 3.504
318.15 K, x1 = 0.2012 | 823.79 | 1290.4 | 3.151
318.15 K, x1 = 0.3115 | 834.47 | 1297 | 2.748
318.15 K, x1 = 0.4221 | 845.67 | 1304.9 | 2.398
318.15 K, x1 = 0.5111 | 855.06 | 1312.4 | 2.154
318.15 K, x1 = 0.6217 | 867.24 | 1323 | 1.889
318.15 K, x1 = 0.7135 | 877.8 | 1333.2 | 1.701
318.15 K, x1 = 0.8063 | 888.93 | 1345.1 | 1.535
318.15 K, x1 = 0.9045 | 901.24 | 1360.1 | 1.388
318.15 K, x1 = 1 | 913.8 | 1378 | 1.276
